The values below come from patent publication US8080688B2, “3, 4-disubstituted phenoxyphenylamidines and use thereof as fungicides” (Bayer Cropscience AG, priority 2007, dated 2011).

Like-named read-outs stand apart in the source and are kept apart here.

This data set in a line: logP. In kind it is physicochemical.

Consider `CCN(C)C=Nc1cc(C)c(Oc2ccc3c(c2)CCCC3)cc1C` [Compound 13, N-Ethyl-N-methyl-N′-[4-(5,6,7,8-tetrahydro-2-naphthoxy)-2,5-dimethylphenyl]formamidine], for which the logP reads like this: (acidic, read-out: logP acidic) 2.69; (neutral, read-out: logP neutr.) 6.31; (pH 2.3, pH 2.3, read-out: log P (pH2.3)) 2.14.
